Data set [1] deals with human insulin. In words: Physical stability of insulin solution with stabiliser, visual inspection for precipitation on storage at 5 °C. The format is physicochemical. Conditions: 0.5 Zn2+/insulin, NaCl 15 mM, glycylglycine 7 mM, tween 20 0.01 %, pH 7.5. On the procedure: (§1) 27.5 ml of a 21 mM insulin stock solution was made by dissolving 3.707 g zinc free human insulin in 14 ml water and adding 2888 µl of 0.1 M ZnCl2 and 7 ml water before adjusting pH to 7.5 by 0.2 M NaOH and finally adding water to 27.5 ml, calculating the specific volume of insulin as 0.7 µl/mg. The stock solution was filtrated. A preparation of 3.5 ml 15 mM insulin was then made by adding 23 µl 2.3 M stabiliser in ethanol, 49 µl 0.5 M glycylglycine and 35 µl 1 % Tween 20 and water to 3.5 ml. The solution was thereafter diluted with medium containing sodium chloride 15 mM, glycylglycine 7 mM, Tween 20 0.01 %, pH 7.5 to 12, 9, 6, 3 and 0.6 mM insulin and stored at 5 °C for visual inspection. The reference solution was made by the same way but without adding a stabiliser. The chemical stability of the insulin solutions were followed at 37 °C for two concentrations, 3 and 15 mM, by determination of covalent insulin polymer by size exclusion chromatography. The analysis of insulin polymer was performed on Waters PROTEIN PAK 125 (250 x 8 mm) with an eluent containing 2.5 M acetic acid, 4 mM L-arginine and 20 %(V/V) acetonitrile at a flow rate of 1 ml/min. and ambient temperature. Detection was performed with a tunable absorbance detector (Waters 486) at 276 nm. Injection volume were […] for 3 and 15 mM insulin solutions, respectively.
(§2) 3.26 g human insulin (0.4 equivalent Zn^2+ per insulin) was dispersed in water in 18 ml water on icebath and added 490 µl 0.5 M glycylglycine and 1628 µl sodium hydroxide (3.1 equivalent) and stirred slowly overnight at 5 °C. 613 µl 0.1 M zinc chloride (0.1 equivalent of zinc) was then added the solution, pH adjusted to 7.5 by 410 µl 1 M hydrochloric acid (0.8 equivalent of chloride) and the volume adjusted to 25 ml by water. Finally the stock solution of 21 mM insulin was filtrated. 3.57 ml of the stock solution was added 50 µl 1 % tween 20, 750 µl 0.1 M stabiliser and 630 µl water to obtain 5 ml 15 mM insulin formulation. Finally the preparation was diluted with medium containing sodium chloride, glycylglycine and detergent to obtain 12, 9, 6, and 3 mM of human insulin and stored at 5 °C for visual inspection. The chemical stability of 3 and 15 mM insulin solutions were followed at 37 °C by determination of covalent insulin polymer by size exclusion chromatography.

Data set [2] concerns human insulin. In words: Chemical stability at 37 °C, covalent insulin polymer determined by size exclusion chromatography. The format is physicochemical. Conditions: stabiliser equimolar to insulin, 0.5 Zn2+/insulin, NaCl 15 mM, glycylglycine 7 mM, tween 20 0.01 %, pH 7.5. How it is done:
as §1, §2

[3] abbreviates: example 1, stabiliser equimolar to insulin.
Where [4] appears, read: example 2, stabiliser equimolar to insulin.

In the case of `CC1C(O)CC2CC1C2(C)C` (single isomer, unassigned; (-)) [(-)-isopinocampheol], in data set [1] (setting [3]), the “Physical stability of solution at 4 weeks and 5°C Maximal insulin concentration at which the solution was without precipitation up to 15 mM (3, 6, 9, 12, 15mM)” value worked out at 15 mM. The “Chemical stability at 37°C (% polymer / week) Insulin solution of 3 mM” value in data set [2] (example 1, 3 mM insulin) is 0.53 % polymer / week. For the same compound, the “Chemical stability at 37°C (% polymer / week) Insulin solution of 15 mM” value in data set [2] (example 1, 15 mM insulin) was found to be 0.56 % polymer / week.

As to `CC1(C)[C@H]2CC[C@](C)(C2)[C@H]1O` [(+)-fenchol], in data set [1] (setting [3]), the “Physical stability of solution at 4 weeks and 5°C Maximal insulin concentration at which the solution was without precipitation up to 15 mM (3, 6, 9, 12, 15mM)” value was determined as 15 mM. Moreover, the “Chemical stability at 37°C (% polymer / week) Insulin solution of 3 mM” value in data set [2] (example 1, 3 mM insulin) is 0.50 % polymer / week. Also, the “Chemical stability at 37°C (% polymer / week) Insulin solution of 15 mM” value in data set [2] (example 1, 15 mM insulin) is 0.97 % polymer / week.

Turning to `CC1(C)[C@H]2CC[C@H](CO)[C@@H]1C2` [(-)-trans-myrtanol], the “Physical stability of solution at 4 weeks and 5°C Maximal insulin concentration at which the solution was without precipitation up to 15 mM (3, 6, 9, 12, 15mM)” value in data set [1] (setting [3]) is listed as 15 mM. Besides, the “Chemical stability at 37°C (% polymer / week) Insulin solution of 3 mM” value in data set [2] (example 1, 3 mM insulin) came out at 0.64 % polymer / week. Moreover, the “Chemical stability at 37°C (% polymer / week) Insulin solution of 15 mM” value in data set [2] (example 1, 15 mM insulin) is reported as 0.95 % polymer / week.

For the compound `Oc1ccccc1` [phenol], the “Physical stability of solution at 4 weeks and 5°C Maximal insulin concentration at which the solution was without precipitation up to 15 mM (3, 6, 9, 12, 15mM)” value in data set [1] (setting [3]) and in data set [1] (setting [4]) was 15 mM in each case. Also, the “Chemical stability at 37°C (% polymer / week) Insulin solution of 3 mM” value in data set [2] (example 1, 3 mM insulin) turned out to be 0.37 % polymer / week; in data set [2] (example 2, 3 mM insulin) it was 0.32 % polymer / week. In addition, the “Chemical stability at 37°C (% polymer / week) Insulin solution of 15 mM” value was 0.39 % polymer / week in data set [2] (example 1, 15 mM insulin) and 0.29 % polymer / week in data set [2] (example 2, 15 mM insulin).

As to `CC1(C)C2CCC1(C)C(O)C2` (single isomer, unassigned; (-)) [(-)-borneol], the “Physical stability of solution at 4 weeks and 5°C Maximal insulin concentration at which the solution was without precipitation up to 15 mM (3, 6, 9, 12, 15mM)” value in data set [1] (setting [3]) amounted to 9 mM. Moreover, in data set [2] (example 1, 3 mM insulin), the “Chemical stability at 37°C (% polymer / week) Insulin solution of 3 mM” value amounted to 0.43 % polymer / week. Further, the “Chemical stability at 37°C (% polymer / week) Insulin solution of 15 mM” value in data set [2] (example 1, 15 mM insulin) is 0.47 % polymer / week.

As to `Nc1ncnc2nc[nH]c12` [adenine], the “Physical stability of solution at 4 weeks and 5°C Maximal insulin concentration at which the solution was without precipitation up to 15 mM (3, 6, 9, 12, 15mM)” value in data set [1] (setting [4]) is 9 mM. In addition, the “Chemical stability at 37°C (% polymer / week) Insulin solution of 3 mM” value in data set [2] (example 2, 3 mM insulin) turned out to be 0.59 % polymer / week. In data set [2] (example 2, 15 mM insulin), the “Chemical stability at 37°C (% polymer / week) Insulin solution of 15 mM” value is recorded as 0.77 % polymer / week.

In the case of `CC1C(O)CC2CC1C2(C)C` (single isomer, unassigned; (+)) [(+)-isopinocampheol], the “Physical stability of solution at 4 weeks and 5°C Maximal insulin concentration at which the solution was without precipitation up to 15 mM (3, 6, 9, 12, 15mM)” value in data set [1] (setting [3]) stood at 12 mM. Also, the “Chemical stability at 37°C (% polymer / week) Insulin solution of 3 mM” value in data set [2] (example 1, 3 mM insulin) was found to be 0.49 % polymer / week. Further, the “Chemical stability at 37°C (% polymer / week) Insulin solution of 15 mM” value in data set [2] (example 1, 15 mM insulin) amounted to 0.61 % polymer / week.

As to `CC1(C)C2CCC1(C)C(O)C2` (single isomer, unassigned; (+)) [(+)-borneol], the “Physical stability of solution at 4 weeks and 5°C Maximal insulin concentration at which the solution was without precipitation up to 15 mM (3, 6, 9, 12, 15mM)” value in data set [1] (setting [3]) was determined as 9 mM. Further, in data set [2] (example 1, 3 mM insulin), the “Chemical stability at 37°C (% polymer / week) Insulin solution of 3 mM” value is listed as 0.47 % polymer / week. For the same compound, the “Chemical stability at 37°C (% polymer / week) Insulin solution of 15 mM” value in data set [2] (example 1, 15 mM insulin) was 0.61 % polymer / week.

For the compound `c1ncc2[nH]cnc2n1` [purine], in data set [1] (setting [4]), the “Physical stability of solution at 4 weeks and 5°C Maximal insulin concentration at which the solution was without precipitation up to 15 mM (3, 6, 9, 12, 15mM)” value was 15 mM. For the same compound, the “Chemical stability at 37°C (% polymer / week) Insulin solution of 3 mM” value in data set [2] (example 2, 3 mM insulin) is 0.58 % polymer / week. Moreover, in data set [2] (example 2, 15 mM insulin), the “Chemical stability at 37°C (% polymer / week) Insulin solution of 15 mM” value came to 0.71 % polymer / week.

The values are drawn from patent EP1131089B1, “STABLE AQUEOUS INSULIN PREPARATIONS WITHOUT PHENOL AND CRESOL” (Novo Nordisk A/S, priority 1998, dated 2000).
